Measured values reported in ChEMBL document CHEMBL4308841, “Synthesis, in vitro antiproliferative activity, and kinase inhibitory effects of pyrazole-containing diarylureas and diarylamides” (Eur J Med Chem, 2018).

Key:
NCI-H23 [1] = assay: Growth inhibition of human NCI-H23 cells assessed as cell growth at 100 uM incubated for 48 hrs by sulforhodamine B assay relative to control; type: functional; details: NCI-H23, 48 h, read-out: Activity
A549 = assay: Growth inhibition of human A549/ATCC cells incubated for 48 hrs by sulforhodamine B assay; type: functional, cell-based; details: A549, 48 h
NCI-H23 [2] = assay: Growth inhibition of human NCI-H23 cells assessed as cell growth at 1 uM incubated for 48 hrs by sulforhodamine B assay relative to control; type: functional; details: NCI-H23, 48 h, read-out: Activity
OVCAR-5 = assay: Growth inhibition of human OVCAR5 cells assessed as cell growth at 0.01 uM incubated for 48 hrs by sulforhodamine B assay relative to control; type: functional; details: OVCAR-5, 48 h, read-out: Activity
MCF7 = assay: Growth inhibition of human MCF7 cells assessed as cell growth at 0.01 uM incubated for 48 hrs by sulforhodamine B assay relative to control; type: functional; details: MCF7, 48 h, read-out: Activity
NCI/ADR-RES = assay: Growth inhibition of human NCI/ADR-RES cells assessed as cell growth at 0.1 uM incubated for 48 hrs by sulforhodamine B assay relative to control; type: functional; details: read-out: Activity
LOX IMVI = assay: Growth inhibition of human LOXIMVI cells assessed as cell growth at 0.01 uM incubated for 48 hrs by sulforhodamine B assay relative to control; type: functional; details: read-out: Activity
NCI-H322M = assay: Growth inhibition of human NCI-H322M cells assessed as cell growth at 1 uM incubated for 48 hrs by sulforhodamine B assay relative to control; type: functional; details: read-out: Activity
SF-268 = assay: Growth inhibition of human SF268 cells assessed as cell growth at 0.01 uM incubated for 48 hrs by sulforhodamine B assay relative to control; type: functional; details: SF-268, 48 h, read-out: Activity
SNB-19 = assay: Growth inhibition of human SNB19 cells assessed as cell growth at 0.01 uM incubated for 48 hrs by sulforhodamine B assay relative to control; type: functional; details: SNB-19, 48 h, read-out: Activity
COLO 205 = assay: Growth inhibition of human COLO205 cells incubated for 48 hrs by sulforhodamine B assay; type: functional, cell-based; details: COLO 205, 48 h
KM12 = assay: Growth inhibition of human KM12 cells assessed as cell growth at 100 uM incubated for 48 hrs by sulforhodamine B assay relative to control; type: functional; details: KM12, 48 h, read-out: Activity
UACC-62 = assay: Growth inhibition of human UACC62 cells assessed as cell growth at 0.01 uM incubated for 48 hrs by sulforhodamine B assay relative to control; type: functional; details: UACC-62, 48 h, read-out: Activity
HCT-15 = assay: Growth inhibition of human HCT15 cells assessed as cell growth at 1 uM incubated for 48 hrs by sulforhodamine B assay relative to control; type: functional; details: HCT-15, 48 h, read-out: Activity
NCI-H226 = assay: Growth inhibition of human NCI-H226 cells assessed as cell growth at 1 uM incubated for 48 hrs by sulforhodamine B assay relative to control; type: functional; details: NCI-H226, 48 h, read-out: Activity
K562 [3] = assay: Growth inhibition of human K562 cells assessed as cell growth at 100 uM incubated for 48 hrs by sulforhodamine B assay relative to control; type: functional; details: K562, 48 h, read-out: Activity
SK-MEL-5 [4] = assay: Growth inhibition of human SK-MEL-5 cells assessed as cell growth at 0.1 uM incubated for 48 hrs by sulforhodamine B assay relative to control; type: functional; details: SK-MEL-5, 48 h, read-out: Activity
CAKI-1 = assay: Growth inhibition of human Caki1 cells assessed as cell growth at 0.1 uM incubated for 48 hrs by sulforhodamine B assay relative to control; type: functional; details: CAKI-1, 48 h, read-out: Activity
786-0 = assay: Growth inhibition of human 786-0 cells assessed as cell growth at 0.1 uM incubated for 48 hrs by sulforhodamine B assay relative to control; type: functional; details: 786-0, 48 h, read-out: Activity
SK-MEL-5 [5] = assay: Growth inhibition of human SK-MEL-5 cells assessed as cell growth at 100 uM incubated for 48 hrs by sulforhodamine B assay relative to control; type: functional; details: SK-MEL-5, 48 h, read-out: Activity
MDA-MB-468 [6] = assay: Growth inhibition of human MDA-MB-468 cells incubated for 48 hrs by sulforhodamine B assay; type: functional, cell-based; details: MDA-MB-468, 48 h
T47D = assay: Growth inhibition of human T47D cells incubated for 48 hrs by sulforhodamine B assay; type: functional, cell-based
RPMI-8226 = assay: Growth inhibition of human RPMI8226 cells assessed as cell growth at 0.01 uM incubated for 48 hrs by sulforhodamine B assay relative to control; type: functional; details: RPMI-8226, 48 h, read-out: Activity
HCT-116 = assay: Growth inhibition of human HCT116 cells incubated for 48 hrs by sulforhodamine B assay; type: functional, cell-based; details: HCT-116, 48 h
K562 [7] = assay: Growth inhibition of human K562 cells assessed as cell growth at 0.1 uM incubated for 48 hrs by sulforhodamine B assay relative to control; type: functional; details: K562, 48 h, read-out: Activity
HT-29 = assay: Growth inhibition of human HT-29 cells assessed as cell growth at 1 uM incubated for 48 hrs by sulforhodamine B assay relative to control; type: functional; details: HT-29, 48 h, read-out: Activity
SN12C = assay: Growth inhibition of human SN12C cells assessed as cell growth at 0.1 uM incubated for 48 hrs by sulforhodamine B assay relative to control; type: functional; details: read-out: Activity
MDA-MB-468 [8] = assay: Growth inhibition of human MDA-MB-468 cells assessed as cell growth at 1 uM incubated for 48 hrs by sulforhodamine B assay relative to control; type: functional; details: MDA-MB-468, 48 h, read-out: Activity
SNB-75 = assay: Growth inhibition of human SNB75 cells assessed as cell growth at 0.1 uM incubated for 48 hrs by sulforhodamine B assay relative to control; type: functional; details: SNB-75, 48 h, read-out: Activity
[9] = read-out: LC50 (the source's name)
[10] = read-out: pLC50 (the source's name) (converted)

## COc1cc(Cl)cc(-c2nn(-c3cccc(NC(=O)Nc4cccc(C(F)(F)F)c4)c3)cc2-c2ccncc2)c1
NCI-H23 [1]
  growth at 100 µM: -40%
A549
  IC50: 0.73 µM
A549; read-out: GI50
  GI50: 0.726 µM
A549; [9]
  CC50: > 100 µM
A549; read-out: TGI
  TGI: 74.2 µM
A549; read-out: pGI50 (converted)
  GI50: 0.724 µM
A549; [10]
  CC50: > 100 µM
A549; read-out: pTGI (converted)
  TGI: 7.41 µM
NCI-H23 [2]
  growth at 1 µM: 71%
OVCAR-5
  growth at 0.01 µM: 94%
MCF7
  growth at 0.01 µM: 91%
NCI/ADR-RES
  growth at 0.1 µM: 98%
LOX IMVI
  growth at 0.01 µM: 96%
NCI-H322M
  growth at 1 µM: 83%
SF-268
  growth at 0.01 µM: 97%
SNB-19
  growth at 0.01 µM: 98%
COLO 205; read-out: GI50
  GI50: 1.53 µM
COLO 205; [9]
  CC50: 65.5 µM
COLO 205; read-out: TGI
  TGI: 31.7 µM
COLO 205; read-out: pGI50 (converted)
  GI50: 1.51 µM
COLO 205; [10]
  CC50: 6.61 µM
COLO 205; read-out: pTGI (converted)
  TGI: 3.16 µM
KM12
  growth at 100 µM: -48%
UACC-62
  growth at 0.01 µM: 96%
HCT-15
  growth at 1 µM: 57%
NCI-H226
  growth at 1 µM: 77%
K562 [3]
  growth at 100 µM: -22%
SK-MEL-5 [4]
  growth at 0.1 µM: 98%
CAKI-1
  growth at 0.1 µM: 104%
786-0
  growth at 0.1 µM: 99%
SK-MEL-5 [5]
  growth at 100 µM: -99%
MDA-MB-468 [6]
  IC50: 1.05 µM
MDA-MB-468 [6]; read-out: GI50
  GI50: 1.05 µM
MDA-MB-468 [6]; [9]
  CC50: > 100 µM
MDA-MB-468 [6]; read-out: TGI
  TGI: 49.9 µM
MDA-MB-468 [6]; read-out: pGI50 (converted)
  GI50: 1.05 µM
MDA-MB-468 [6]; [10]
  CC50: > 100 µM
MDA-MB-468 [6]; read-out: pTGI (converted)
  TGI: 5.01 µM
T47D; read-out: GI50
  GI50: 1.23 µM
T47D; [9]
  CC50: > 100 µM
T47D; read-out: TGI
  TGI: 59.9 µM
T47D; read-out: pGI50 (converted)
  GI50: 1.23 µM
T47D; [10]
  CC50: > 100 µM
T47D; read-out: pTGI (converted)
  TGI: 6.92 µM
RPMI-8226
  growth at 0.01 µM: 99%
HCT-116
  IC50: 0.75 µM
HCT-116; read-out: GI50
  GI50: 0.754 µM
HCT-116; [9]
  CC50: 35.7 µM
HCT-116; read-out: TGI
  TGI: 75.1 µM
HCT-116; read-out: pGI50 (converted)
  GI50: 0.759 µM
HCT-116; [10]
  CC50: 38.9 µM
HCT-116; read-out: pTGI (converted)
  TGI: 7.59 µM
K562 [7]
  growth at 0.1 µM: 94%
HT-29
  growth at 1 µM: 65%
SN12C
  growth at 0.1 µM: 96%
MDA-MB-468 [8]
  growth at 1 µM: 51%
SNB-75
  growth at 0.1 µM: 55%
